This note sets out measurements from ChEMBL document CHEMBL4138253, “Synthesis and Biological Evaluation of a Series of Bile Acid Derivatives as FXR Agonists for Treatment of NASH” (ACS Med Chem Lett, 2017).

Assay [1] deals with T1, Bile acid receptor (Homo sapiens, UniProt Q96RI1).
T1 sequence (Q96RI1 whole entry): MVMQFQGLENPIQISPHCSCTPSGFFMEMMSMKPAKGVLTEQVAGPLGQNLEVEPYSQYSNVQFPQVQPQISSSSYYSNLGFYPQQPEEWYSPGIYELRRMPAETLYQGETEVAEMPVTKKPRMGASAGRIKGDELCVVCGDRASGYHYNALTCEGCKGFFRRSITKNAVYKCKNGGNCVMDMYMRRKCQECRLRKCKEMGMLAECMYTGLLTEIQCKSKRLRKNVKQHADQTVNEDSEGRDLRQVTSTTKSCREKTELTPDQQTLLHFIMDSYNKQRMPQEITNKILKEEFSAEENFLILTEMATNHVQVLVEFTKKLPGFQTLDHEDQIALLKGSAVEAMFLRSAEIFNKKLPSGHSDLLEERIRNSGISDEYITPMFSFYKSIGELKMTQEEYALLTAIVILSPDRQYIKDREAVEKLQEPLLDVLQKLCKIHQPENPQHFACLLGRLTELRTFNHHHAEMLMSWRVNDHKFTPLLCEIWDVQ
Briefly: Agonist activity at recombinant human GST-tagged FXR LBD (193 to 472 residues) expressed in baculovirus-infected insect cells assessed as recruitment of biotinylated SRC1 peptide measured after 1 hr by Alphascreen assay.

For assay [2], the target named is T2, Bile acid receptor (Homo sapiens) (UniProt Q96RI1).
T2 sequence (whole entry): T1 sequence (Q96RI1 whole entry)
The assay can be described thus: Agonist activity at recombinant human GST-tagged FXR LBD (193 to 472 residues) expressed in baculovirus-infected insect cells assessed as recruitment of biotinylated SRC1 peptide measured after 1 hr by Alphascreen assay relative to CDCA. For orientation: Alpha assays give light when donor and acceptor beads are brought close together.

Assay [3] addresses T1, Bile acid receptor. Briefly: Agonist activity at FXR (unknown origin) measured after 16 hrs in presence of CCF4-AM dye by cell-based GeneBlazer FRET assay.
Assay [4] addresses T2, Bile acid receptor (Homo sapiens). The assay can be described thus: Agonist activity at FXR (unknown origin) measured after 16 hrs in presence of CCF4-AM dye by cell-based GeneBlazer FRET assay relative to CDCA.
The target in assay [5] is T3, G-protein coupled bile acid receptor 1 (Homo sapiens, UniProt Q8TDU6).
T3 sequence (Q8TDU6 whole entry): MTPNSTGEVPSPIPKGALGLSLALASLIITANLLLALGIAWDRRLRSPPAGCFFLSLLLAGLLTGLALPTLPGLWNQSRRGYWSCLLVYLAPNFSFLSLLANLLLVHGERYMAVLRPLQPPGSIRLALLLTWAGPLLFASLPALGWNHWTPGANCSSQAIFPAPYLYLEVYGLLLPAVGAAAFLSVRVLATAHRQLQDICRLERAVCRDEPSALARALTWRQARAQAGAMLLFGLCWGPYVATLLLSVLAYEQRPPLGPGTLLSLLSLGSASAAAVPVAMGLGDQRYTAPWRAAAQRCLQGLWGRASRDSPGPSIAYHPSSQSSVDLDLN
Briefly: Agonist activity at human TGR5 expressed in HEK293 cells assessed as increase in intracellular cAMP level after 1 hr by TR-FRET assay. The format is functional, cell-based.

The species entered for the next assay is Homo sapiens. Briefly: Selectivity ratio of EC50 for recombinant human GST-tagged FXR LBD (193 to 472 residues) expressed in baculovirus-infected insect cells to EC50 for human TGR5 expressed in HEK293 cells.

In general, EC50 refers to the concentration needed to bring the measured effect to its halfway point. Regarding `CC[C@H]1[C@@H](O)[C@@H]2[C@H](CC[C@]3(C)[C@@H]([C@H](C)CCNC(=O)OCc4cccs4)CC[C@@H]23)[C@@]2(C)CC[C@@H](O)C[C@@H]12`, the EC50 at Bile acid receptor [1] came to 230 nM; at Bile acid receptor [3], 110 nM. Moreover, the Efficacy in assay [2] was determined as 142%; in assay [4], 168%.
On to `CC[C@H]1[C@@H](O)[C@@H]2[C@H](CC[C@]3(C)[C@@H]([C@H](C)CCNC(=O)c4ccccn4)CC[C@@H]23)[C@@]2(C)CC[C@@H](O)C[C@@H]12`, for which the concentration giving a half-maximal response (EC50) on Bile acid receptor [1] came out at 30 nM. Also, the Efficacy in assay [2] came out at 88%.
The corresponding values for `CC[C@H]1[C@@H](O)[C@@H]2[C@H](CC[C@]3(C)[C@@H]([C@H](C)CCC(=O)O)CC[C@@H]23)[C@@]2(C)Cc3cn[nH]c3C[C@@H]12` are 300 nM and 136%.
Consider `CC[C@H]1[C@@H](O)[C@@H]2[C@H](CC[C@]3(C)[C@@H]([C@H](C)CCNC(=O)OC4CCC4)CC[C@@H]23)[C@@]2(C)CC[C@@H](O)C[C@@H]12`, for which the EC50 on Bile acid receptor [1] was 150 nM. In addition, the Efficacy in assay [2] amounted to 100%.
In the case of `CC[C@H]1[C@@H](O)[C@@H]2[C@H](CC[C@]3(C)[C@@H]([C@H](C)CCCNC(N)=O)CC[C@@H]23)[C@@]2(C)CC[C@@H](O)C[C@@H]12`, on Bile acid receptor [1], the EC50 stood at 130 nM. Moreover, the Efficacy in assay [2] amounted to 95%.
The corresponding values for `CC[C@H]1[C@@H](O)[C@@H]2[C@H](CC[C@]3(C)[C@@H]([C@H](C)CCNC(=O)OC4CCCCC4)CC[C@@H]23)[C@@]2(C)CC[C@@H](O)C[C@@H]12` are 300 nM and 140%.
Take `CC[C@H]1[C@@H](O)[C@@H]2[C@H](CC[C@]3(C)[C@@H]([C@H](C)CCC(N)=O)CC[C@@H]23)[C@@]2(C)CC[C@@H](O)C[C@@H]12`: at Bile acid receptor [1], the EC50 turned out to be 600 nM. Further, the Efficacy in assay [2] amounted to 142%.
The matching figures for `CC[C@H]1[C@@H](O)[C@@H]2[C@H](CC[C@]3(C)[C@@H]([C@H](C)CCNC(C)=O)CC[C@@H]23)[C@@]2(C)CC[C@@H](O)C[C@@H]12`: 150 nM and 81%.
The matching figures for `CC[C@H]1[C@@H](O)[C@@H]2[C@H](CC[C@]3(C)[C@@H]([C@H](C)CCCNS(C)(=O)=O)CC[C@@H]23)[C@@]2(C)CC[C@@H](O)C[C@@H]12`: 110 nM and 85%.
Take `CC[C@H]1[C@@H](O)[C@@H]2[C@H](CC[C@]3(C)[C@@H]([C@H](C)CCC(=O)O)CC[C@@H]23)[C@@]2(C)CCC(C)C[C@@H]12` (stereo not given in full): the concentration for a half-maximal effect (EC50) at Bile acid receptor [1] came out at 1500 nM. Moreover, in assay [2], the Efficacy was found to be 49%.
The matching figures for `CC[C@H]1[C@@H](O)[C@@H]2[C@H](CC[C@]3(C)[C@@H]([C@H](C)CCNC(=O)OCc4ccccc4)CC[C@@H]23)[C@@]2(C)CC[C@@H](O)C[C@@H]12`: 300 nM and 130%.
For the molecule `CC[C@H]1[C@@H](O)[C@@H]2[C@H](CC[C@]3(C)[C@@H]([C@H](C)CCC(=O)O)CC[C@@H]23)[C@@]2(C)CCC3(CC3)C[C@@H]12`, the concentration for a half-maximal effect (EC50) at Bile acid receptor [1] is 700 nM. Further, in assay [2], the Efficacy was 68%.
On to `CC[C@H]1[C@@H](O)[C@@H]2[C@H](CC[C@]3(C)[C@@H]([C@H](C)CCCNC(=O)N4CC[C@H](O)C4)CC[C@@H]23)[C@@]2(C)CC[C@@H](O)C[C@@H]12`, for which, on Bile acid receptor [1], the concentration giving a half-maximal response (EC50) turned out to be 370 nM. In addition, the Efficacy in assay [2] was 129%.
The matching figures for `CC[C@H]1[C@@H](O)[C@@H]2[C@H](CC[C@]3(C)[C@@H]([C@H](C)CCC(=O)S)CC[C@@H]23)[C@@]2(C)CC[C@@H](O)C[C@@H]12`: 240 nM and 226%.
In the case of `CC[C@H]1[C@@H](O)[C@@H]2[C@H](CC[C@]3(C)[C@@H]([C@H](C)CCNS(=O)(=O)C4CC4)CC[C@@H]23)[C@@]2(C)CC[C@@H](O)C[C@@H]12`, the EC50 on Bile acid receptor [1] amounted to 230 nM. In addition, the Efficacy in assay [2] was 87%.
As for `CC[C@H]1[C@@H](O)[C@@H]2[C@H](CC[C@]3(C)[C@@H]([C@H](C)CCNC(=O)O[C@@H]4CCOC4)CC[C@@H]23)[C@@]2(C)CC[C@@H](O)C[C@@H]12`, the values for the EC50 on Bile acid receptor [1] and on Bile acid receptor [3] were 120 nM and 80 nM, respectively. Also, the Efficacy is 100% in assay [2] and 170% in assay [4].
Take `CC[C@H]1[C@@H](O)[C@@H]2[C@H](CC[C@]3(C)[C@@H]([C@H](C)CCCNS(=O)(=O)c4ccccc4)CC[C@@H]23)[C@@]2(C)CC[C@@H](O)C[C@@H]12`: the EC50 on Bile acid receptor [1] came out at 230 nM. Moreover, the Efficacy in assay [2] is 79%.
With `CC[C@H]1[C@@H](O)[C@@H]2[C@H](CC[C@]3(C)[C@@H]([C@H](C)CCC4NC(=O)NC4=O)CC[C@@H]23)[C@@]2(C)CC[C@@H](O)C[C@@H]12` (stereo not given in full), the EC50 on Bile acid receptor [1] turned out to be 2700 nM. Besides, the Efficacy in assay [2] was 202%.
The matching figures for `CC[C@H]1[C@@H](O)[C@@H]2[C@H](CC[C@]3(C)[C@@H]([C@H](C)CCNC(=O)OC(C)C)CC[C@@H]23)[C@@]2(C)CC[C@@H](O)C[C@@H]12`: 300 nM and 162%.
As for `CC[C@H]1[C@@H](O)[C@@H]2[C@H](CC[C@]3(C)[C@@H]([C@H](C)CCC(=O)O)CC[C@@H]23)[C@@]2(C)CC[C@@H](OC)C[C@@H]12`, the EC50 at Bile acid receptor [1] amounted to 1800 nM. In assay [2], the Efficacy worked out at 108%.
The matching figures for `CC[C@H]1[C@@H](O)[C@@H]2[C@H](CC[C@]3(C)[C@@H]([C@H](C)CCNC(N)=O)CC[C@@H]23)[C@@]2(C)CC[C@@H](O)C[C@@H]12`: 230 nM and 104%.
With `CC[C@H]1[C@@H](O)[C@@H]2[C@H](CC[C@]3(C)[C@@H]([C@H](C)CCNS(C)(=O)=O)CC[C@@H]23)[C@@]2(C)CC[C@@H](O)C[C@@H]12`, on Bile acid receptor [1], the EC50 worked out at 280 nM. Further, in assay [2], the Efficacy was determined as 128%.
Turning to `CC[C@H]1[C@@H](O)[C@@H]2[C@H](CC[C@]3(C)[C@@H]([C@H](C)CCNC(=O)N4CC[C@H](O)C4)CC[C@@H]23)[C@@]2(C)CC[C@@H](O)C[C@@H]12`, the concentration for a half-maximal effect (EC50) on Bile acid receptor [1] is 80 nM; in assay [5], 160 nM. The Efficacy in assay [2] came out at 115%. Further, the Ratio EC50 in the assay filed under Homo sapiens worked out at 2.
With `CC[C@H]1[C@@H](O)[C@@H]2[C@H](CC[C@]3(C)[C@@H]([C@H](C)CCC(=O)O)CC[C@@H]23)[C@@]2(C)CCC(F)(F)C[C@@H]12`, the EC50 at Bile acid receptor [1] was found to be 1100 nM. In assay [2], the Efficacy amounted to 109%.
Regarding `CC[C@H]1[C@@H](O)[C@@H]2[C@H](CC[C@]3(C)[C@@H]([C@H](C)CCNC(=O)NC4CC4)CC[C@@H]23)[C@@]2(C)CC[C@@H](O)C[C@@H]12`, the half-maximal effective concentration (EC50) at Bile acid receptor [1] amounted to 70 nM; in assay [5] it was 420 nM. Moreover, the Efficacy in assay [2] came out at 104%. For the same molecule, the Ratio EC50 in the assay listed under Homo sapiens was found to be 6.
Consider `CC[C@H]1[C@@H](O)[C@@H]2[C@H](CC[C@]3(C)[C@@H]([C@H](C)CCNC(=O)OC)CC[C@@H]23)[C@@]2(C)CC[C@@H](O)C[C@@H]12`, for which the concentration for a half-maximal effect (EC50) on Bile acid receptor [1] was found to be 300 nM. For the same molecule, the Efficacy in assay [2] stood at 149%.
`CC[C@H]1[C@@H](O)[C@@H]2[C@H](CC[C@]3(C)[C@@H]([C@H](C)CCNS(=O)(=O)c4ccccc4)CC[C@@H]23)[C@@]2(C)CC[C@@H](O)C[C@@H]12`: the EC50 on Bile acid receptor [1] was determined as 470 nM. Moreover, the Efficacy in assay [2] is 117%.
The matching figures for `CC[C@H]1[C@@H](O)[C@@H]2[C@H](CC[C@]3(C)[C@@H]([C@H](C)CCC(C)=O)CC[C@@H]23)[C@@]2(C)CC[C@@H](O)C[C@@H]12`: 1000 nM and 263%.
The matching figures for `CC[C@H]1[C@@H](O)[C@@H]2[C@H](CC[C@]3(C)[C@@H]([C@H](C)CCC(=O)O)CC[C@@H]23)[C@@]2(C)CCCC[C@@H]12`: 400 nM and 126%.
The corresponding values for `CC[C@H]1[C@@H](O)[C@@H]2[C@H](CC[C@]3(C)[C@@H]([C@H](C)CCC(=O)NCC(=O)O)CC[C@@H]23)[C@@]2(C)CC[C@@H](O)C[C@@H]12` are 290 nM and 135%.
Consider `CC[C@H]1[C@@H](O)[C@@H]2[C@H](CC[C@]3(C)[C@@H]([C@H](C)CCc4nn[nH]n4)CC[C@@H]23)[C@@]2(C)CC[C@@H](O)C[C@@H]12`, for which the Efficacy in assay [2] worked out at 153%. For the same molecule, the Ratio EC50 in the assay listed under Homo sapiens came out at 30.
